Laboratory results taken from ChEMBL document CHEMBL1156661, “Myrtucommulones F-I, phloroglucinols with thyrotropin-releasing hormone receptor-2 binding affinity from the seeds of Corymbia scabrida” (J Nat Prod, 2008).

Test: Displacement of [H3]3-methylhistidylTRH from rat recombinant TRH2 receptor expressed in […] cells
Assay type: cell-based

Row | SMILES | IC50 [µM]
1 | CC(C)C(=O)c1c(O)c([C@H](C2=C(O)C(C)(C)C(=O)C(C)(C)C2=O)C(C)C)c(O)c([C@H](C2=C(O)C(C)(C)C(=O)C(C)(C)C2=O)C(C)C)c1O [MYRTUCOMMULONE A] | 39
2 | CC(C)C(=O)c1c(O)c2c(c3c1O[C@@]1(O)[C@@H](C(O)C(C)(C)C(=O)C1(C)C)[C@@H]3C(C)C)OC1=C(C(=O)C(C)(C)C(=O)C1(C)C)[C@@H]2C(C)C (stereo partly specified) [MYRTUCOMMULONE D] | 11
3 | CCCCCC(=O)c1c(O)c([C@H](C2=C(O)C(C)(C)C(=O)C(C)(C)C2=O)C(C)C)c(O)c([C@H](C2=C(O)C(C)(C)C(=O)C(C)(C)C2=O)C(C)C)c1O [MYRTUCOMMULONE F] | 16
4 | CCCCCC(=O)c1c(O)c2c(c3c1O[C@@]1(O)[C@@H](C(O)C(C)(C)C(=O)C1(C)C)[C@@H]3C(C)C)OC1=C(C(=O)C(C)(C)C(=O)C1(C)C)[C@@H]2C(C)C (stereo partly specified) [MYRTUCOMMULONE G] | 24
5 | CCCCCC(=O)c1c(O)c([C@@H](CC(C)C)C2=C(O)C(C)(C)C(=O)C(C)(C)C2=O)c(O)c([C@H](C2=C(O)C(C)(C)C(=O)C(C)(C)C2=O)C(C)C)c1O [MYRTUCOMMULONE H] | 31
6 | CCCCCC(=O)c1c(O)c2c(c3c1O[C@@]1(O)[C@@H](C(O)C(C)(C)C(=O)C1(C)C)[C@@H]3C(C)C)OC1=C(C(=O)C(C)(C)C(=O)C1(C)C)[C@@H]2CC(C)C (stereo partly specified) [MYRTUCOMMULONE I] | 16
